# Laboratory results from patent US7763292B2, “Cancer cell growth inhibition by black bean (Phaseolus vulgaris L) extracts” (Instituto Technologico y de Estudios Superiores de Monterrey, priority 2004, dated 2010).
# Assays:
# [1] = test system: hormone dependent mammary cancer cells MCF-7; assay: MCF-7 proliferation in hormone-free serum, 13 days incubation; format: cell-based
# Experimental: Methanol extracts of raw and 5-day malted NG-Perla black beans were obtained by the methods described in Examples 2 and 8, respectively, and used to test their effects on hormone dependent mammary cancer cell proliferation (MCF-7).
# Since isoflavones found in black beans may show estrogenic activity, and MCF-7 are hormone dependent mammary cancer cells; tests were conducted in hormone-free serum to discard the possibility of enhanced proliferation instead of inhibition. […] Thus, MCF-7 cells were first cultured with purified commercial standards of genistein (Indofine Chemical Company, Hillsborough, N.J.) and genistin (Sigma-Aldrich Chem. Co., St. Louis, Mo.) as positive controls with the aim of testing their effects on proliferation of this cancer cell line.
# [2] = test system: MCF-7 cells; conditions: cited from earlier work
# [3] = test system: Human hormone dependent mammary cancer cells (MCF-7); assay: MCF-7 growth inhibition bioassay of quercetin and flavonol-rich black bean extract; format: cell-based; conditions: quercetin alone
# From the text: Human hormone dependent mammary cancer cells (MCF-7) were used to conduct bioassays to test growth inhibitory effects of commercially available quercetin alone and in presence of other flavonols and phytochemicals found in black bean extracts described in Table 2.
# [4] = literature (Dávalos, 2004); cited from earlier work
smiles,measurement,setting,value
O=c1c(-c2ccc(O)cc2)coc2cc(O[C@@H]3O[C@H](CO)[C@@H](O)[C@H](O)[C@H]3O)cc(O)c12 [genistin],proliferation inhibition of MCF-7,[1]; even at concentrations higher than 20 μM,did not show proliferation inhibition
O=c1c(O)c(-c2ccc(O)c(O)c2)oc2cc(O)cc(O)c12 [Quercetin],IC50,"[2]; regular serum conditions (Rodgers, 1998), read-out: concentration needed to inhibit 50% of MCF-7 cancer cells",≥ 200 µM
same,inhibitory effect on MCF-7 growth,[3],did not have any inhibitory effect
same,antioxidant value,[4],10.5 TE
O=c1c(-c2ccc(O)cc2)coc2cc(O)cc(O)c12 [genistein],IC50,"[1]; Homo sapiens, MCF7, 312 h, 13 days incubation, estimated by curve fit to FIG. 12, read-out: concentration required to lower the cell population doublings from 6 to 3 (50% inhibition)",18.5 µM
O=c1c(O)c(-c2cc(O)c(O)c(O)c2)oc2cc(O)cc(O)c12 [myricetin],inhibition of MCF-7 cells,[2]; regular serum conditions,do not inhibit
"COc1ccc(O)c(C(C)(C)C)c1 [BHA, butylated hydroxyanisole]",antioxidant value,[4],2.43 TE
O=C(O)/C=C/c1ccc(O)c(O)c1 [caffeic acid],antioxidant value,[4],6.63 TE
